# Measured values taken from the supplement of paper PMC11208160.
# Experiment: recombinant barcode read abundance after kanamycin selection (control-corrected) (log10(CPM+1)); higher = more efficient recombination; sequences stand for … in AGTGCAGAGAAAATCGGCCAGTTTTCTCTGCCTGCAGTCCGCATGCCGT…ATTTATGCAGCGGACTGCCTTTCTCCCAAAGTGATAAACCGGACAGTATCATGGACCGGTTTTCCCGGTAATCCGTATTTGCAAGGTTGGTTTCACT; site = the 11-nt target
# Method in brief: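 Recombination efficiency draws on barcodes counted at recombinant junctions in a pooled E. coli screen of targets paired with IS621 bridge RNA target-binding loops. The counts were converted to counts per million, averaged and corrected against the chloramphenicol/ampicillin LB agar control, then reported as log10(CPM+1). Selection plates held chloramphenicol/ampicillin/kanamycin with 0.1 mM IPTG, with two replicates per condition.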
row,Sequence,recombinant barcode read abundance (log10)
1,"GAGGCCTCTTGGGTTCTAACCTGTTGCCATA [GAGGCCTCTTG_LTGcore_CT_RTGcore_TA] (site GAGGCCTCTTG) (LTG core: CT, RTG core: TA)",0.267
2,"GAGGCCTCTTGGGTTCTAACCTGTTGCCATC [GAGGCCTCTTG_LTGcore_CT_RTGcore_GA] (site GAGGCCTCTTG) (LTG core: CT, RTG core: GA)",0.252
3,"GAGGCCTGTTGGGTTCTAACCTGTTGCCAAC [GAGGCCTCTTG_LTGcore_GT_RTGcore_GT] (site GAGGCCTCTTG) (LTG core: GT, RTG core: GT)",0.104
4,"GAGGCCTTCTGGGTTCTAACCTGTTGCCAAG [GAGGCCTCTTG_LTGcore_TC_RTGcore_CT] (site GAGGCCTCTTG) (LTG core: TC, RTG core: CT)",0.0445
5,"GAGGCCTTCTGGGTTCTAACCTGTTGCCAGA [GAGGCCTCTTG_LTGcore_TC_RTGcore_TC] (site GAGGCCTCTTG) (LTG core: TC, RTG core: TC)",0.104
6,"GAGGCCTTGTGGGTTCTAACCTGTTGCCACA [GAGGCCTCTTG_LTGcore_TG_RTGcore_TG] (site GAGGCCTCTTG) (LTG core: TG, RTG core: TG)",0.014
7,"GAGGCCTTTTGGGTTCTAACCTGTTGCCAAA [GAGGCCTCTTG_LTGcore_TT_RTGcore_TT] (site GAGGCCTCTTG) (LTG core: TT, RTG core: TT)",0.0543
8,"GAGTCCAATTGGGTTCTAACCTGTTGCGTAT [GAGTCCACTAC_LTGcore_AT_RTGcore_AT] (site GAGTCCACTAC) (LTG core: AT, RTG core: AT)",0.0548
9,"GAGTCCACATGGGTTCTAACCTGTTGCGTTG [GAGTCCACTAC_LTGcore_CA_RTGcore_CA] (site GAGTCCACTAC) (LTG core: CA, RTG core: CA)",0.022
10,"GAGTCCACTTGGGTTCTAACCTGTTGCGTAA [GAGTCCACTAC_LTGcore_CT_RTGcore_TT] (site GAGTCCACTAC) (LTG core: CT, RTG core: TT)",0.027
11,"GAGTCCAGGTGGGTTCTAACCTGTTGCGTAG [GAGTCCACTAC_LTGcore_GG_RTGcore_CT] (site GAGTCCACTAC) (LTG core: GG, RTG core: CT)",0.689
12,"GAGTCCATGTGGGTTCTAACCTGTTGCGTCA [GAGTCCACTAC_LTGcore_TG_RTGcore_TG] (site GAGTCCACTAC) (LTG core: TG, RTG core: TG)",0.101
13,"GAGTCCTCATGGGTTCTAACCTGTTGCCTTG [GAGTCCTCTAG_LTGcore_CA_RTGcore_CA] (site GAGTCCTCTAG) (LTG core: CA, RTG core: CA)",0.185
14,"GAGTCCTCCTGGGTTCTAACCTGTTGCCTAG [GAGTCCTCTAG_LTGcore_CC_RTGcore_CT] (site GAGTCCTCTAG) (LTG core: CC, RTG core: CT)",0.191
15,"GAGTCCTCGTGGGTTCTAACCTGTTGCCTCG [GAGTCCTCTAG_LTGcore_CG_RTGcore_CG] (site GAGTCCTCTAG) (LTG core: CG, RTG core: CG)",0.0506
16,"GAGTCCTCTTGGGTTCTAACCTGTTGCCTAG [GAGTCCTCTAG_LTGcore_CT_RTGcore_CT] (site GAGTCCTCTAG) (LTG core: CT, RTG core: CT)",2.17
17,"GAGTCCTCTTGGGTTCTAACCTGTTGCCTGA [GAGTCCTCTAG_LTGcore_CT_RTGcore_TC] (site GAGTCCTCTAG) (LTG core: CT, RTG core: TC)",1.3
18,"GAGTCCTCTTGGGTTCTAACCTGTTGCCTTA [GAGTCCTCTAG_LTGcore_CT_RTGcore_TA] (site GAGTCCTCTAG) (LTG core: CT, RTG core: TA)",1.48
19,"GAGTCCTCTTGGGTTCTAACCTGTTGCCTTC [GAGTCCTCTAG_LTGcore_CT_RTGcore_GA] (site GAGTCCTCTAG) (LTG core: CT, RTG core: GA)",1.24
20,"GAGTCCTGCTGGGTTCTAACCTGTTGCCTGC [GAGTCCTCTAG_LTGcore_GC_RTGcore_GC] (site GAGTCCTCTAG) (LTG core: GC, RTG core: GC)",0.333
21,"GAGTCCTGTTGGGTTCTAACCTGTTGCCTAC [GAGTCCTCTAG_LTGcore_GT_RTGcore_GT] (site GAGTCCTCTAG) (LTG core: GT, RTG core: GT)",0.0554
22,"GAGTCCTTATGGGTTCTAACCTGTTGCCTAG [GAGTCCTCTAG_LTGcore_TA_RTGcore_CT] (site GAGTCCTCTAG) (LTG core: TA, RTG core: CT)",0.414

row,Sequence,recombinant barcode read abundance (log10)
1,"GCGCGACACTGGGTTCTAACCTGTTGCTTGT [GCGCGACCTAA_LTGcore_AC_RTGcore_AC] (site GCGCGACCTAA) (LTG core: AC, RTG core: AC)",0.147
2,"GCGCGACCATGGGTTCTAACCTGTTGCTTAG [GCGCGACCTAA_LTGcore_CA_RTGcore_CT] (site GCGCGACCTAA) (LTG core: CA, RTG core: CT)",0.422
3,"GCGCGACCCTGGGTTCTAACCTGTTGCTTAG [GCGCGACCTAA_LTGcore_CC_RTGcore_CT] (site GCGCGACCTAA) (LTG core: CC, RTG core: CT)",0.907
4,"GCGCGACCTTGGGTTCTAACCTGTTGCTTGC [GCGCGACCTAA_LTGcore_CT_RTGcore_GC] (site GCGCGACCTAA) (LTG core: CT, RTG core: GC)",0.0896
5,"GCGCGACCTTGGGTTCTAACCTGTTGCTTGT [GCGCGACCTAA_LTGcore_CT_RTGcore_AC] (site GCGCGACCTAA) (LTG core: CT, RTG core: AC)",0.0798
6,"GCGCGACCTTGGGTTCTAACCTGTTGCTTTC [GCGCGACCTAA_LTGcore_CT_RTGcore_GA] (site GCGCGACCTAA) (LTG core: CT, RTG core: GA)",0.07
7,"GCGCGACGATGGGTTCTAACCTGTTGCTTAG [GCGCGACCTAA_LTGcore_GA_RTGcore_CT] (site GCGCGACCTAA) (LTG core: GA, RTG core: CT)",0.0201
8,"GCGCGACGCTGGGTTCTAACCTGTTGCTTAG [GCGCGACCTAA_LTGcore_GC_RTGcore_CT] (site GCGCGACCTAA) (LTG core: GC, RTG core: CT)",0.0605
9,"GCGCGACGGTGGGTTCTAACCTGTTGCTTAG [GCGCGACCTAA_LTGcore_GG_RTGcore_CT] (site GCGCGACCTAA) (LTG core: GG, RTG core: CT)",0.048
10,"GCGGGACAATGGGTTCTAACCTGTTGCCTTT [GCGGGACCTAG_LTGcore_AA_RTGcore_AA] (site GCGGGACCTAG) (LTG core: AA, RTG core: AA)",0.119
11,"GCGGGACAGTGGGTTCTAACCTGTTGCCTAG [GCGGGACCTAG_LTGcore_AG_RTGcore_CT] (site GCGGGACCTAG) (LTG core: AG, RTG core: CT)",0.28
12,"GCGGGACCATGGGTTCTAACCTGTTGCCTAG [GCGGGACCTAG_LTGcore_CA_RTGcore_CT] (site GCGGGACCTAG) (LTG core: CA, RTG core: CT)",0.909
13,"GCGGGACCTTGGGTTCTAACCTGTTGCCTCC [GCGGGACCTAG_LTGcore_CT_RTGcore_GG] (site GCGGGACCTAG) (LTG core: CT, RTG core: GG)",1.24
14,"GCGGGACCTTGGGTTCTAACCTGTTGCCTCT [GCGGGACCTAG_LTGcore_CT_RTGcore_AG] (site GCGGGACCTAG) (LTG core: CT, RTG core: AG)",0.713
15,"GCGGGACCTTGGGTTCTAACCTGTTGCCTGT [GCGGGACCTAG_LTGcore_CT_RTGcore_AC] (site GCGGGACCTAG) (LTG core: CT, RTG core: AC)",1.21
16,"GCGGGACCTTGGGTTCTAACCTGTTGCCTTT [GCGGGACCTAG_LTGcore_CT_RTGcore_AA] (site GCGGGACCTAG) (LTG core: CT, RTG core: AA)",0.927
17,"GCGGGACGCTGGGTTCTAACCTGTTGCCTAG [GCGGGACCTAG_LTGcore_GC_RTGcore_CT] (site GCGGGACCTAG) (LTG core: GC, RTG core: CT)",0.137
18,"GCGGGACTATGGGTTCTAACCTGTTGCCTAG [GCGGGACCTAG_LTGcore_TA_RTGcore_CT] (site GCGGGACCTAG) (LTG core: TA, RTG core: CT)",0.11
19,"GCGGGACTCTGGGTTCTAACCTGTTGCCTAG [GCGGGACCTAG_LTGcore_TC_RTGcore_CT] (site GCGGGACCTAG) (LTG core: TC, RTG core: CT)",0.467
20,"GCGGGACTCTGGGTTCTAACCTGTTGCCTGA [GCGGGACCTAG_LTGcore_TC_RTGcore_TC] (site GCGGGACCTAG) (LTG core: TC, RTG core: TC)",0.135
21,"GCGGGACTGTGGGTTCTAACCTGTTGCCTCA [GCGGGACCTAG_LTGcore_TG_RTGcore_TG] (site GCGGGACCTAG) (LTG core: TG, RTG core: TG)",0.226
